The text below walks through data of article PMC7795425, “Synthesis and Biological Activity of Brassinosteroid Analogues with a Nitrogen-Containing Side Chain” (International Journal of Molecular Sciences, 2020).

Data set [1] can be described thus: Calcein AM cytotoxicity assay, MCF7. Format: cell-based. Conditions: human, MCF7 breast carcinoma cells (estrogen-sensitive), MCF7, 72 h, IC50 > 50 µM means inactive, read-out: Cytotoxic activity IC50. The procedure:
(§1) The effect of the prepared BRs derivatives on the viability (in Calcein AM assays) of BJ human fibroblasts (as an example of a “normal” cell line) and human cancer cell lines of various histopathological origins, including: T-lymphoblastic leukemia CEM, breast carcinoma MCF7 and cervical carcinoma cell line HeLa, was also studied. Cells of all these lines were exposed to six 3-fold dilutions of each drug for 72 h prior to determination of cell survival. The IC50 (concentration leading to 50% inhibition of viability) values obtained from the Calcein AM cytotoxicity assay were calculated. […] All tested BR nitrogen-containing derivatives had no detectable activity, even when tested in concentrations of up to 50 µM.
(§2) The screening cell lines: T-lymphoblastic leukemia CEM; breast carcinoma MCF7 (estrogen-sensitive); cervical carcinoma cell line HeLa; and human foreskin fibroblasts BJ, were obtained from the American Type Culture Collection (Manassas, VA, USA). Cells were cultured in DMEM (Dulbecco’s Modified Eagle Medium, Sigma, St. Louis, MO, USA). Media used were supplemented with 10% fetal bovine serum, 2mM L-glutamine and 1% penicillin–streptomycin. The cell lines were maintained under standard cell culture conditions at 37 °C and 5% CO2 in a humid environment.
(§3) Cells were subcultured twice or three times a week using the standard trypsinization procedure. Cytotoxicity in cancer cell lines after 72 h was determined as described earlier. Control cultures were treated with DMSO alone, and the final concentration of DMSO in the mixture never exceeded 0.6%. Six serial 3-fold dilutions of the test substances were added at time zero in 20 μL aliquots to the microtiter plate wells and the highest final concentration in the wells was 50 μM.
(§4) Table S3: Cytotoxic activities, IC50 (µM/L)a, of compounds in three tumor and one normal fibroblast
(§5) Compound CEM MCF7 HeLa BJ
(§6) a The lowest concentration that kills 50% of cells.
(§7) b Increase of cell proliferation.

Data set [2] in a line: Calcein AM cytotoxicity assay, BJ. The format is cell-based. Conditions: human, BJ foreskin fibroblasts (normal cell line), IC50 > 50 µM means inactive, read-out: Cytotoxic activity IC50. The protocol:
as §1, §2, §3, §4, §5, §6, §7

The test system of data set [3] is Arabidopsis thaliana L. (Columbia ecotype, Col-0) seedlings. Description: Arabidopsis root sensitivity bioassay. The format is in vivo. As to conditions: for root length, mean: 7-day-old seedlings; for elongation of roots (growth-promoting activity) compared to the control: low concentrations (0.1 and 1 nM). The procedure: Several bioassays such as the first bean internode, root growth and rice lamina inclination have been developed to evaluate the growth-promoting activity of BR derivatives. In this work, the activity of new BR analogues was evaluated using the Arabidopsis root sensitivity test because of its simplicity and high sensitivity for BRs.. The characteristic effect of exogenously applied BRs on light-grown Arabidopsis is dose-dependent—BRs in higher concentrations cause inhibition of root growth; vice versa, low concentrations are stimulating. The results obtained for 24-epiBL, which was used as a positive control, and the BR derivatives are shown in Figure 2, Figure 3 and Figure S21. […] A similar trend was shown for dimethylammonium hydrochloride 22a and morpholinium hydrochloride 22e with a long side chain. For numerical values of the average, SD and p-value, see Table S2.
The biological activity of the new BRs derivatives was tested by an Arabidopsis sensitivity bioassay which was performed according to [28]. Briefly, seedlings of Arabidopsis thaliana L. (Columbia ecotype, Col-0) were stratified for 2 days at 4 °C and germinated on vertical half-strength Murashige and Skoog (1% w/v sucrose) agar at 22 °C in a 16 h/8 h light–dark cycle. The plates contained concentrations of 24-epiBL (as positive control) and BR derivatives ranging from 0.1 to 10 nM, respectively 100 nM (for selected derivatives only). After 7 days, roots were straightened on solid media plates and scanned with an Epson high-resolution scanner. The entire root length was measured with ImageJ (http://rsbweb.nih.gov/ij/). For each treatment, more than 15 seedlings were analyzed in two biological repeats, and p-values were calculated with the two-tailed Student t-test using Excel software.
Figure 2 Effect of selected brassinosteroid derivatives on the inhibition of Arabidopsis root length. Seven-day-old Arabidopsis thaliana seedlings (Columbia ecotype, Col-0) were treated with DMSO as control/24epiBL/BR short side chain derivatives; (A)—amides, (B)—amines, (C)—ammonium hydrochlorides. For each treatment, more than 15 seedlings were analyzed in two biological repeats. Error bars represent SD. Asterisks represent significant changes (t-test); * represents p-value < 0.05, in comparison to control.
Figure 3 Effect of selected brassinosteroid derivatives on the inhibition of Arabidopsis root length. Seven-day-old Arabidopsis thaliana seedlings (Columbia ecotype, Col-0) were treated with DMSO as control/24epiBL/BR long side chain derivatives; (A)—amides, (B)—ammonium hydrochlorides. For each treatment, more than 15 seedlings were analyzed in two biological repeats. Error bars represent SD. Asterisks represent significant changes (t-test); * represents p-value < 0.05, in comparison to control.
Table S2: Data for figure 2, 3, and S21. P value <0.05(t-test), comparison to control.
control (mean ± SD) 16.3 ± 1.21
*only selected compounds were tested
mean(mm) SD t-test mean (mm) SD t-test mean (mm) SD t-test mean (mm) SD t-test
(1 picture or pasted object on this page, not shown here)

The nature of data set [4]: Calcein AM cytotoxicity assay, CEM. Format: cell-based. As to conditions: human, CEM T-lymphoblastic leukemia cells, IC50 > 50 µM means inactive, read-out: Cytotoxic activity IC50. The protocol:
as §1, §2, §3, §4, §5, §6, §7

Data set [5] can be described thus: Calcein AM cytotoxicity assay, HeLa. Conditions: human, HeLa cervical carcinoma cells, IC50 > 50 µM means inactive, read-out: Cytotoxic activity IC50. The format is cell-based. The procedure: as §1, §2, §3, §4, §5, §6, §7
The mark [6] stands for this setting: 100 nM (only selected compounds), control 14.61 ± 0.85.

SMILES strings stand for the structures. Entries after “also recorded” stand apart in the source; their conditions may differ. Where a name gives a salt, the structure may show the parent alone.

For `C[C@H]([C@@H](O)[C@@H](O)CN(C)C)[C@H]1CC[C@H]2[C@@H]3CC(=O)[C@H]4C[C@H](O)[C@H](O)C[C@]4(C)[C@H]3CC[C@]12C.Cl` [22a, N,N-dimethyl-((20S,22R,23S)-2α,3α,22,23-tetrahydroxy-6-oxo-5α-cholan-24-yl)aminium chloride], the melting point – broadly, the temperature, or range, at which the solid turns liquid – is > 270 °C (dec.). In addition, the IC50 (usually the concentration that inhibits the measured activity by half) at 72 h in data set [1] was above 50 µM. The IC50 at 72 h in data set [2] is above 50 µM. For the same compound, in data set [3] (0.1 nM, control 16.3 ± 1.21), the “root length, mean” value is 19.56 mm. Also, the “root length, mean” value in data set [3] (1 nM, control 16.3 ± 1.21) is 18.17 mm. In addition, the “root length, mean” value in data set [3] (10 nM, control 16.3 ± 1.21) came out at 17.11 mm. In data set [3] (setting [6]), the “root length, mean” value was 13.464 mm. Further, in data set [3], the “elongation of roots (growth-promoting activity) compared to the control” value is listed as “interesting growth-promoting activity”. In addition, the IC50 at 72 h in data set [4] was above 50 µM. In addition, the IC50 at 72 h in data set [5] is above 50 µM.

In the case of `C[C@H](CN1CCCCC1)[C@H]1CCC2C3CC(=O)[C@H]4C[C@H](O)[C@H](O)C[C@]4(C)C3CC[C@@]21C` (stereo partly drawn) (as salt: chloride) [16d, 1-((20S)-2α,3α-dihydroxy-6-oxo-5α-pregnane-20-methyl)piperidin-1-ium chloride], the melting point is > 280 °C (dec.).

As for `C[C@H](CN(C)C)[C@H]1CCC2C3CC(=O)[C@H]4C[C@H](O)[C@H](O)C[C@]4(C)C3CC[C@@]21C` (stereo partly drawn) [16a, N,N-dimethyl-((20S)-2α,3α-dihydroxy-6-oxo-5α-pregnane-20-methyl)aminium chloride], the IC50 at 72 h in data set [1], in data set [2], in data set [4] and in data set [5] was above 50 µM in each case. In addition, the “root length, mean” value in data set [3] (0.1 nM, control 16.3 ± 1.21) worked out at 18.91 mm; in data set [3] (1 nM, control 16.3 ± 1.21) it was 15.64 mm; in data set [3] (10 nM, control 16.3 ± 1.21), 15.32 mm; in data set [3] (setting [6]), 13.626 mm.

On to `C[C@H](CN1CCOCC1)[C@H]1CCC2C3CC(=O)[C@H]4C[C@H](O)[C@H](O)C[C@]4(C)C3CC[C@@]21C` (stereo partly drawn) [16e, 4-((20S)-2α,3α-dihydroxy-6-oxo-5α-pregnane-20-methyl)morpholin-4-ium chloride], for which the IC50 at 72 h in data set [1], in data set [2], in data set [4] and in data set [5] was above 50 µM each time. The “root length, mean” value came to 17.21 mm in data set [3] (0.1 nM, control 16.3 ± 1.21); 17.61 mm in data set [3] (1 nM, control 16.3 ± 1.21); 16.13 mm in data set [3] (10 nM, control 16.3 ± 1.21); 13.771 mm in data set [3] (setting [6]). Further, the “elongation of roots (growth-promoting activity) compared to the control” value in data set [3] is on record as “slight elongation of roots; also recorded: interesting growth-promoting activity”.

In the case of `C[C@H](CN1CCCCC1)[C@H]1CCC2C3CC(=O)[C@H]4C[C@H](O)[C@H](O)C[C@]4(C)C3CC[C@@]21C` (stereo partly drawn) [16d, 1-((20S)-2α,3α-dihydroxy-6-oxo-5α-pregnane-20-methyl)piperidin-1-ium chloride], the concentration for half-maximal inhibition (IC50) at 72 h in data set [1], in data set [2], in data set [4] and in data set [5] was above 50 µM throughout. The “root length, mean” value in data set [3] (0.1 nM, control 16.3 ± 1.21) was 15.32 mm; in data set [3] (1 nM, control 16.3 ± 1.21) it was 15.65 mm; in data set [3] (10 nM, control 16.3 ± 1.21), 17.61 mm.

Take `CCN(CC)C[C@@H](C)[C@H]1CCC2C3CC(=O)[C@H]4C[C@H](O)[C@H](O)C[C@]4(C)C3CC[C@@]21C` (stereo partly drawn) (as salt: chloride) [16b, N,N-diethyl-((20S)-2α,3α-dihydroxy-6-oxo-5α-pregnane-20-methyl)aminium chloride]: the melting point was > 270 °C (dec.).

For the compound `C[C@H](CN1CCCC1)[C@H]1CCC2C3CC(=O)[C@H]4C[C@H](O)[C@H](O)C[C@]4(C)C3CC[C@@]21C` (stereo partly drawn) (as salt: chloride) [16c, 1-((20S)-2α,3α-dihydroxy-6-oxo-5α-pregnane-20-methyl)pyrrolidin-1-ium chloride], the melting point was > 260 °C (dec.).

Turning to `C[C@H](CN1CCOCC1)[C@H]1CCC2C3CC(=O)[C@H]4C[C@H](O)[C@H](O)C[C@]4(C)C3CC[C@@]21C` (stereo partly drawn) (as salt: chloride) [16e, 4-((20S)-2α,3α-dihydroxy-6-oxo-5α-pregnane-20-methyl)morpholin-4-ium chloride], the melting point was > 240 °C (dec.).

For the compound `CC(C)[C@@H](C)[C@@H](O)[C@H](O)[C@@H](C)[C@H]1CC[C@H]2[C@@H]3COC(=O)[C@H]4C[C@H](O)[C@H](O)C[C@]4(C)[C@H]3CC[C@]12C` [24-epiBL, 24-epibrassinolide, reference compound], the “root length, mean” value in data set [3] (0.1 nM, control 16.3 ± 1.21) was found to be 15.811 mm; in data set [3] (1 nM, control 16.3 ± 1.21), 13.855 mm; in data set [3] (10 nM, control 16.3 ± 1.21), 7.342 mm; in data set [3] (setting [6]), 6.685 mm. Further, the “concentration inhibiting Arabidopsis root growth” value in data set [3] (light-grown seedlings, positive control) was at least 1 nM.

As for `CCN(CC)C[C@@H](C)[C@H]1CCC2C3CC(=O)[C@H]4C[C@H](O)[C@H](O)C[C@]4(C)C3CC[C@@]21C` (stereo partly drawn) [16b, N,N-diethyl-((20S)-2α,3α-dihydroxy-6-oxo-5α-pregnane-20-methyl)aminium chloride], the IC50 at 72 h in data set [1], in data set [2], in data set [4] and in data set [5] was above 50 µM each time. Further, the “root length, mean” value in data set [3] (0.1 nM, control 16.3 ± 1.21) is recorded as 17.27 mm; in data set [3] (1 nM, control 16.3 ± 1.21), 17.61 mm; in data set [3] (10 nM, control 16.3 ± 1.21), 16.13 mm.

Take `C[C@H](CN(C)C)[C@H]1CCC2C3CC(=O)[C@H]4C[C@H](O)[C@H](O)C[C@]4(C)C3CC[C@@]21C` (stereo partly drawn) (as salt: chloride) [16a, N,N-dimethyl-((20S)-2α,3α-dihydroxy-6-oxo-5α-pregnane-20-methyl)aminium chloride]: the melting point is > 290 °C (dec.).

As to `C[C@H](CN1CCCC1)[C@H]1CCC2C3CC(=O)[C@H]4C[C@H](O)[C@H](O)C[C@]4(C)C3CC[C@@]21C` (stereo partly drawn) [16c, 1-((20S)-2α,3α-dihydroxy-6-oxo-5α-pregnane-20-methyl)pyrrolidin-1-ium chloride], the IC50 at 72 h in data set [1], in data set [2], in data set [4] and in data set [5] was above 50 µM throughout. Further, the “root length, mean” value in data set [3] (0.1 nM, control 16.3 ± 1.21) was determined as 15.97 mm; in data set [3] (1 nM, control 16.3 ± 1.21), 14.99 mm; in data set [3] (10 nM, control 16.3 ± 1.21), 15.16 mm.
